In ChEMBL document CHEMBL4145495, “Development of novel oxazolo[5,4-d]pyrimidines as competitive CB2 neutral antagonists based on scaffold hopping” (Eur J Med Chem, 2018):
pIC50, pKi: −log10 of the molar value.

What was measured:
Cannabinoid receptor 2 [1] = target: T1, Cannabinoid receptor 2 (Homo sapiens, UniProt P34972); experiment: Displacement of [3H]-CP-55940 from human CB2 expressed in CHO cells after 90 mins by TopCount scintillation counting method; type: cell-based
[2] = Cytotoxicity against CB2-expressing CHO cells assessed as cell growth inhibition at 10 uM after 72 hrs by MTS assay; type: cell-based, Cricetulus griseus; settings: chinese hamster, read-out: GI
[3] = Cytotoxicity against human HT-29 cells assessed as cell growth inhibition at 10 uM after 72 hrs by MTS assay; type: cell-based; settings: read-out: GI
Cannabinoid receptor 1 = Cannabinoid receptor 1 (Homo sapiens, UniProt P21554); experiment: Displacement of [3H]-CP-55940 from human CB1 expressed in CHO cells after 90 mins by TopCount scintillation counting method; type: cell-based
Sequence of Cannabinoid receptor 1 (P21554 whole entry): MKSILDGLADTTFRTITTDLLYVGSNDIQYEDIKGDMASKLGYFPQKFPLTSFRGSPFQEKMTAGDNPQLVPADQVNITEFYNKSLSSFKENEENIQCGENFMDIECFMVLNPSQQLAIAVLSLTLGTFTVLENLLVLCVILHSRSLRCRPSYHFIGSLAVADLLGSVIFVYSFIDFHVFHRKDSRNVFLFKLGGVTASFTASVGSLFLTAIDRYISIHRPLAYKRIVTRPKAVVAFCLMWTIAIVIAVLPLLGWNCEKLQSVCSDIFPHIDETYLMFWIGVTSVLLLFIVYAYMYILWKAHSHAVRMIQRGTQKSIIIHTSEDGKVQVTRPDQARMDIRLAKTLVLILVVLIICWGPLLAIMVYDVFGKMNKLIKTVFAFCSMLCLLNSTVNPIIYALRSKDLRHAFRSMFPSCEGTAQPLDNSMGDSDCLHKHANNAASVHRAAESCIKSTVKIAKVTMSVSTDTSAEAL

[4] = Cytotoxicity against wild-type CHO cells assessed as cell growth inhibition at 10 uM after 72 hrs by MTS assay; type: cell-based, Cricetulus griseus; settings: chinese hamster, read-out: GI
[5] = Intrinsic clearance in CD1 mouse liver microsomes at 1 uM up to 40 mins by UPLC-MS/MS analysis; type: ADME, microsome; settings: read-out: CLH
Homo sapiens = species on record: Homo sapiens; experiment: Selectivity index, ratio of Ki for human CB1 to Ki for human CB2
[6] = Half life in CD1 mouse liver microsomes at 1 uM up to 40 mins by UPLC-MS/MS analysis; type: ADME, microsome
Cannabinoid receptor 2 [7] = target: T1, Cannabinoid receptor 2; experiment: Neutral antagonist activity at human CB2 assessed as inhibition of WIN552122-induced suppression of cAMP formation preincubated for 15 mins followed by forskolin addition for 30 mins measured after 1 hr by HTRF assay; type: functional
Cannabinoid receptor 2 [8] = target: T1, Cannabinoid receptor 2; experiment: Neutral antagonist activity at human CB2 assessed as restoration of forskolin-induced cAMP formation preincubated for 15 mins followed by forskolin addition for 30 mins measured after 1 hr by HTRF assay; type: functional
[9] = Half life in CD1 mouse liver microsomes at 200 nM up to 40 mins by UPLC-MS/MS analysis; type: ADME, microsome
[10] = Intrinsic clearance in CD1 mouse liver microsomes at 200 nM up to 40 mins by UPLC-MS/MS analysis; type: ADME, microsome; settings: read-out: CLH

T1 sequence (P34972 whole entry): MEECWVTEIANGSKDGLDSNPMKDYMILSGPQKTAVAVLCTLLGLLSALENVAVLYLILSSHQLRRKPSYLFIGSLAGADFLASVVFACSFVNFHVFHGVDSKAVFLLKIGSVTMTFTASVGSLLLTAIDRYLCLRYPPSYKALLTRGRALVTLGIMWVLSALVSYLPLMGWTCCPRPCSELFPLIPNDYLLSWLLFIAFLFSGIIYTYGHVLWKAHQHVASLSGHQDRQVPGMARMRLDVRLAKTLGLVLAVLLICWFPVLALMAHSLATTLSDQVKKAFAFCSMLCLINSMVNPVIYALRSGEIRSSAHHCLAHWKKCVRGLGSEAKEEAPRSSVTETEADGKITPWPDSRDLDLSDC

SMILES	pKi (Cannabinoid receptor 2 [1])	inhibition at 72 h, 10 µM [2] [%]	inhibition at 72 h, 10 µM [3] [%]	pKi (Cannabinoid receptor 1)	inhibition at 72 h, 10 µM [4] [%]	microsomal CLint at 1 µM [5] [µL/min/mg]	Ratio Ki (Homo sapiens)	half-life at 1 µM [6] [min]	pIC50 (Cannabinoid receptor 2 [7])	pIC50 (Cannabinoid receptor 2 [8])	half-life at 0.2 µM [9] [min]	microsomal CLint at 0.2 µM [10] [µL/min/mg]
Clc1ccccc1-c1nc2c(NCC3CCCCC3)ncnc2o1	< 6.00	10	0	< 6.00	0							
CCN1CCN(c2ncnc3oc(-c4ccccc4Cl)nc23)CC1	6.48	9	4	< 6.00	1	1100	> 3	1.2				
CC(=O)N1CCN(c2ncnc3oc(-c4ccccc4C(F)(F)F)nc23)CC1	6.60	1	12	< 6.00	12	174	> 3.9	12.5				
CN1CCN(c2ncnc3oc(-c4ccccc4C(F)(F)F)nc23)CC1	6.81	0	0	< 6.00	3	1260	> 6.4	0.9				
CCN1CCN(c2nc(C)nc3[nH]c(-c4ccccc4Cl)nc23)CC1		0	0		30	54		44				
COCCNc1ncnc2oc(-c3ccccc3Cl)nc12	< 6.00	0	0	< 6.00	0							
Cc1nc(N2CCN(C)CC2)c2nc(-c3ccccc3Cl)oc2n1	7.56	4	24	< 6.00	0	502	> 36.3	4.1	6.03	6.03		
CCN1CCN(c2ncnc3oc(-c4ccccc4F)nc23)CC1	< 6.00	8	24	< 6.00	10							
CC(=O)N1CCN(c2ncnc3oc(-c4ccccc4Cl)nc23)CC1	6.17	11	0	< 6.00	23		> 1.4				12.2	194
CCCCNc1ncnc2oc(-c3ccccc3Cl)nc12	< 6.00	18	0	< 6.00	0							
CCN1CCN(c2ncnc3oc(-c4ccccc4C(F)(F)F)nc23)CC1	7.02	5	1	< 6.00	10	1240	> 10.4	1				
CN1CCN(c2ncnc3oc(-c4ccccc4)nc23)CC1	< 6.00	0	0	< 6.00	0							
CN1CCN(c2ncnc3oc(-c4ccccc4F)nc23)CC1	< 6.00	7	0	< 6.00	8							
Clc1ccccc1-c1nc2c(NCC3CCNCC3)ncnc2o1	< 6.00	9	41	< 6.00	0							
CCCCCNc1ncnc2oc(-c3ccccc3Cl)nc12	< 6.00	13	10	< 6.00	6							
Clc1ccccc1-c1nc2c(N3CCOCC3)ncnc2o1	< 6.00	10	5	< 6.00	0							
CCCN1CCN(c2ncnc3oc(-c4ccccc4Cl)nc23)CC1	< 6.00	2	0	< 6.00	0							
CCN1CCN(c2nc(C)nc3oc(-c4ccccc4Cl)nc23)CC1	7.64	16	16	6.53	0	263	12.7	8.1	6.92	6.92		
COc1ccc(C(=O)c2c(C)n(CCN3CCOCC3)c3cc(I)ccc23)cc1	7.04	0	0		0							
CCN1CCN(c2ncnc3oc(-c4ccccc4)nc23)CC1	< 6.00	0	0	< 6.00	0							
CN1CCN(c2ncnc3oc(-c4ccccc4Cl)nc23)CC1	6.46	0	8	< 6.00	0		> 2.8				1.3	1180
